{"source": "patent US4663311A", "about": "“Derivatives of muramyl-peptides and of steroids having macrophage-activating properties” (priority 1983, dated 1987)", "key": {"B16-BL6 melanoma": {"tested_on": "B16-BL6 melanoma", "assay": "Cytotoxicity against B16-BL6 melanoma cocultured with treated rat alveolar macrophages (125I-deoxyuridine remaining)", "assay_type": "cell-based", "method": "The macrophages used are alveolar macrophages of F344 male rats of 200 gm. The macrophages are obtained by washing the lung with 9×5 ml of PBS medium of DULBECCO without calcium or magnesium, of rats anesthesitized with 0.5 ml 5% Nembutal ip (Laboratoires Abbott S.A.) and bled by incision of an artery of the kidney. After centrifugation, they are resuspended in MEM (Minimal Essential Medium) supplemented with 5% of inactivated fetal calf serum (Gibco), glutamine, sodium pyruvate, non-essential amino acids, vitamins and antibiotics (penicillin and streptomycine).\nThe suspension is then adjusted to 5×10^5 macrophages/ml and redistributed in the proportion of 100 μl per cup in a TITERTEK plastic dish of 96 cups. After incubation for 4 hours, the macrophages have adhered; the non-adherent cells (less than 5%) are removed by aspiration of the medium and two washings with incubation medium. […]\nAfter 96 hours of coculture, the dead cells are removed by 3 washings of each cup with 200 μl of PBS of DULBECCO medium. […] The radioactivity remaining in each cup is counted in a gamma counter (BECKMAN GAMMA 4000). […]\nthe antitumoral activity of the macrophages is expressed as a cytotoxicity percentage (%CYT): [formula] where T=^125 I-deoxyuridine remaining in the untreated macrophages+tumoral cells coculture; and […]"}, "influenza virus A/PR 8": {"tested_on": "influenza virus A/PR 8", "assay": "Anti-viral activity in experimental influenza infection of Swiss mice", "assay_type": "in vivo, mouse", "source_text": "The anti-viral activity has been evaluated in an experimental infection system. Swiss mice aged 10 weeks were used. The virus chosen was that of the influenza virus A/PR 8.\nAt day D-0, the animals received by the intra-nasal route 50 microliters of a viral dilution at 1/10^4.\nAn anti-viral activity of the tested compound has been found both in preventive and curative experiments (prevention). The administration of one mg of compound by the intra-nasal route one day prior to the viral dilution produced the survival of 67% of the animals.\nWhen the compounds were used at the curative level, the best results were obtained when 0.5 mg of the compound was administered sub-cutaneously one day after the administration of the viral dilution. 71% of the animals survived."}, "Mastocytoma P815": {"tested_on": "Mastocytoma P815", "assay": "Growth inhibition of mastocytoma P815 cocultured with treated mouse peritoneal macrophages (tritiated thymidine incorporation)", "assay_type": "cell-based", "conditions": "MTP-chol in liposomes at 2 μg/ml (400 μg liposomes/ml) or 1 μg/ml (200 μg liposomes/ml) vs 50 μg of MDP", "method": "I. The microphages used are peritoneal macrophages from eight week old female BDF 1 mice. They have been brought into the peritoneal cavity by i.p. injection 4 days earlier, of 1.5 ml of a sterile inflammatory irritant, thioglycollate medium (marketed by Institut Pasteur Production).\nThe peritoneal cells are obtained by peritoneal washing with 5 ml of MEM medium (see below) of mice previously killed by cervical dislocation and bled by decapitation.\nAfter centrifugation, they are replaced in suspension in MEM (Minimal Essential Medium, Institut Pasteur Production) supplemented with 5% of inactivated fetal calf serum (gibco), and antibiotics (penicillin+streptomycine).\nThe macrophages are identified by microscope by their aptitude to endocyte neutral red and counted on an aliquot portion.\nThe suspension is then adjusted to 2.10^6 macrophages/ml and distributed in the proportion of 250 μl per cup in a Microtest II (NUNCLON) plastic box of 96 cups.\nThe disk is placed in an oven (HERAEUS) at 37° C. in an air atmosphere+5% water-saturated CO2. […]\nThe portion of filter corresponding to each cup is cut out and counted in the presence of scintillation liquid (LIPOLUMAC, LUMA) in a scintillation counter (RACKBETA, LKB). […]\nThe antitumoral activity of the macrophages is expressed as a percentage of growth inhibition: (%IC) [formula] […]"}}}
{"molecule": "CC(=O)N[C@@H]1[C@@H](OC(C)C(=O)N[C@@H](C)C(=O)N[C@H](CCC(=O)N[C@@H](C)C(=O)O[C@H]2CC[C@@]3(C)C(=CC[C@H]4[C@@H]5CC[C@H]([C@H](C)CCCC(C)C)[C@@]5(C)CC[C@@H]43)C2)C(N)=O)[C@H](O)[C@@H](CO)O[C@@H]1O", "note": "(stereo partly drawn) [MTP-chol, N-acetyl-muramyl-L-alanyl-D-isoglutaminyl-L-alanyl-cholsteryl ester]", "values": [{"measurement": "concentration of MTP-chol in the liposomes that significantly activates the macrophages", "setting": "B16-BL6 melanoma; 40 μg phospholipid/ml", "value": "> 0.0017", "unit": "µg/mL"}, {"measurement": "concentration of MTP-chol in the liposomes that significantly activates the macrophages", "setting": "B16-BL6 melanoma; 400 μg phospholipid/ml", "value": "more than 0.017 μg/ml"}, {"measurement": "animals survived", "setting": "influenza virus A/PR 8; curative: 0.5 mg sub-cutaneously one day after the viral dilution", "value": 71, "unit": "%"}, {"measurement": "survival of the animals", "setting": "influenza virus A/PR 8; preventive: one mg intra-nasal one day prior to the viral dilution", "value": 67, "unit": "%"}, {"measurement": "activation of macrophages compared with MDP", "setting": "Mastocytoma P815", "value": "activates the macrophages significantly more than 50 μg of MDP does"}]}
